Patent US8586125B2, “Thermal treatment of an implantable medical device” (Advanced Cardiovascular Systems, Inc., priority 1999, dated 2013)

Legend:
[1] = Release Rate Profile Procedure (in vitro, HPLC); assay type: physicochemical; details: as demonstrated in Example 53
Procedure: This Example 41 is referred to as the “Release Rate Profile Procedure.” A drug-coated stent was placed on a stent holder of a Vankel Bio-Dis release rate tester (Vankel, Inc., Cary, N.C.). The stent was dipped into an artificial medium which stabilizes the 40-O-(2-hydroxy)ethyl-rapamycin in the testing solution, including a phosphate buffer saline solution (10 mM, pH 7.4) with 1% TRITON X-100 (Sigma Corporation), for a designated amount of time (e.g., 3 hours). Then the solution was analyzed for the amount of drug released from the stent coating using an HPLC process. The HPLC system consisted of a Waters 2690 system with an analytical pump, a column compartment (set at 40° C.), an auto-sampler, and a 996 PDA detector. The column was an YMC Pro C18 (150 mm×4.6 I.D., 3 μm particle size), maintained at a temperature of 40° C. The mobile phase consisted of 75% acetonitrile and 25% 20 mMolar ammonium acetate. […] After the drug solution was analyzed by HPLC the results were quantified by comparing the release rate results with a reference standard.
If the experimental protocol required that the stent coating be subjected to experimental conditions for an additional time, the stent was then dipped in a fresh medium solution for the necessary amount of time (e.g., another 3 hours) and the drug released in the solution was analyzed again according to the HPLC procedure described above. […]

[2] = Release rate from a standard polymeric coating; assay type: physicochemical; details: in about 24 hours
Description: Another potential shortcoming of the foregoing method of medicating stents is that the release rate of the active agent may be too high to provide an efficacious treatment. This shortcoming may be especially pronounced with certain active agents. […] Thus, there is a need for a coating that reduces the release rate of active agents in order to provide a more efficacious release rate profile.

coronary arteries = test: Cephalotaxin/EVOH coated stents implanted in porcine coronary arteries; assay type: in vivo, pigs; details: cephalotaxin coated vs uncoated and EVOH coated stents; estimated 33 μg cephalotaxin per stent
Procedure: Multi-Link™ stents were cleaned by placement in an ultrasonic bath of isopropyl alcohol solution for 10 minutes. The stents were dried and plasma cleaned in a plasma chamber. An EVOH solution was made with 1 gram of EVOH and 7 grams of DMSO, making an EVOH:DMSO ratio of 1:7. Cephalotaxin was added to the 1:7 EVOH:DMSO solution. Cephalotaxin constituted 5% by weight of the total weight of the solution. The solution was vortexed and placed in a tube. The cleaned Multi-Link™ stents were attached to mandrel wires and dipped into the solution. The coated stents were passed over a hot plate, for about 3-5 seconds, with a temperature setting of about 60° C. The coated stents were cured for 6 hours in an air box then placed in a vacuum oven at 60° C. for 24 hours. The above process was repeated twice, having a total of three layers. The average weight of the coating was 0.00013 gram, with an estimated cephalotaxin concentration of 33 μg. The stents were sterilized by electron beam radiation. […]

| decrease of the release rate by thermal treatment as compared to a control group [1] | release rate from a standard polymeric coating [2] | Compound | amount of neointimal proliferation resulting from arterial injury (coronary arteries) |
| --- | --- | --- | --- |
| about 50% | greater than 50% | CO[C@H]1C[C@@H]2CC[C@@H](C)[C@@](O)(O2)C(=O)C(=O)N2CCCC[C@H]2C(=O)O[C@H]([C@H](C)C[C@@H]2CC[C@@H](OCCO)[C@H](OC)C2)CC(=O)[C@H](C)/C=C(\C)[C@@H](O)[C@@H](OC)C(=O)[C@H](C)C[C@H](C)/C=C/C=C/C=C/1C [40-O-(2-hydroxy)ethyl-rapamycin] |  |
|  |  | COC1=C[C@]23CCCN2CCc2cc4c(cc2[C@@H]3[C@@H]1O)OCO4 [cephalotaxin, Cephalotaxin] | no significant difference |
